Measured values reported in patent publication US20050101542A1, “Combination therapy for controlling appetites” (Regents of the University of California, priority 2002, published 2005).
“Also recorded” adds a separate entry of the source. Where two headings read alike, the source gives them in different places.

Assays:
human PPARα = target: T1, human PPARα (Homo sapiens, UniProt Q07869); assay: GAL4 chimeric receptor transactivation assay in HeLa cells, PPARα; type: cell-based; conditions: for PPARα activation: HeLa transactivation assay
T1 construct: expressed in transfected cells; host or cells: HeLa (clonal reporter line HLR, stably transfected with pFA-PPARα)
T1 sequence (Q07869 239-466 limits assumed): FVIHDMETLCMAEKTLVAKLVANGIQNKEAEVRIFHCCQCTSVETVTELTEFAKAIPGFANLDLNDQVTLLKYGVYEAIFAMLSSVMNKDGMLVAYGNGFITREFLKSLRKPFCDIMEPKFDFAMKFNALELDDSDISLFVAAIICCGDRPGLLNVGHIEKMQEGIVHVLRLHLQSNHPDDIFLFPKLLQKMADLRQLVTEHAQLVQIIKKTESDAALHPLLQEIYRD
Experimental: Eighteen hours following transfection, the culture media was replaced with supplemented DMEM containing hygromycin (100 μg-ml^−1, Calbiochem). After 4 weeks in culture, the surviving clones were isolated and analyzed by luciferase assay. […] The cells were cultured in supplemented DMEM containing hygromycin and G418. For transactivation assays, cells were seeded in 6-well plates (50,000 cells per well) and incubated for 7 hours in supplemented DMEM containing hygromycin and G418, plus appropriate concentrations of test compounds. Dual-luciferase reporter assay system (Promega) and an MLX Microtiter® plate luminometer (Dynex) were used to determine luciferase activity in cell lysates.

[1] = Acute food intake in 24-h food-deprived rats, i.p. dosing; type: in vivo, rat; conditions: 24-h food-deprived rats, i.p.
Experimental: Feeding experiments. Acute experiments. Food intake was measured in 24-h food-deprived rats (Navarro, et al., J. Neurochem., 67:1982-1991 (1996)), administering drugs 15 min before food presentation. Subchronic experiments. Ad libitum fed rats received vehicle injections for three days. On day four, the animals were divided in two equal groups and gave them daily injections of vehicle or OEA (5 mg per kg at 1900 h) for 7 consecutive days, while measuring body weight, food intake and water intake.
The effects of systemically administered OEA or an OEA-like compound or OEA-like modulator on food intake in rats can be assessed using a 24 h fast. […] To define the selectivity of this response, various OEA analogs were evaluated for their ability to produce hypophagia.

Soleus muscle = assay: [14C]oleate oxidation to CO2 in soleus muscle; type: cell-based, rat
From the text: This example illustrates the effect of OEA on fat metabolism and methods for studying the same. Oleoylethanolamide (OEA) decreases body weight not only by suppressing appetite, but also by possibly enhancing body fat catabolism. The effects of OEA on fatty acid oxidation in major body-fat burning tissues (soleus muscle, liver, cultured cardiac myocytes and astrocytes) was examined. […] In addition, OEA induces a significant mobilization of triacylglycerol stores from primary white adipose tissue cells. Table 4 details the methods and effects of OEA on fatty acid oxidation in these cells. Structure-activity relationship experiments provide evidence that the effect of OEA on skeletal muscle fatty acid oxidation is specific (FIG. 8).

[2] = Acute feeding experiments in free-feeding mice (C57BL/6J, wild-type, PPARα-null); type: in vivo, mouse; conditions: for food intake in C57BL/6J mice: i.p., Wy-14643 40, GW7647 20, clofibrate 25-100, GW501516 1-10, ciglitazone 15 mg kg^−1; for feeding in PPARα-deficient mice: OEA 10, Wy-14643 40, d-fenfluramine 4 mg-kg^−1, CCK-8 25 μg-kg^−1, i.p.; for meal pattern analysis (eating latency, meal size, post-meal interval): C57BL/6J mice
Experimental: Acute experiments. Drugs or appropriate vehicles (saline, for CCK-8 and d-fenfluramine; dimethylsulfoxide/saline, 70/30, for all other agents; 4 ml-kg^−1; i.p.) were administered at 5:00-5:30 PM to free-feeding mice, which were habituated to the experimental setting.

[3] = Food intake in capsaicin-treated (sensory deafferented) rats, Example 2; type: in vivo, rat; conditions: OEA 10 mg per kg i.p.
Experimental: FAE were dissolved in dimethylsulphoxide (DMSO) and administered in 70% DMSO in sterile saline (acute treatments) Or 5% Tween 80/5% propylenglycol in sterile saline (subchronic treatments) (1 ml per kg, i.p.). Capsaicin was administered in 10% Tween 80/10% ethanol/80% saline; SR141716A, SR144528, CCK-8 and CP-93129 in 5% Tween 80/5% propylenglycol/90% saline (1 ml per kg, i.p.).

[4] = Capsaicin sensory deafferentation and feeding, Example 8; type: in vivo, rat; conditions: CCK-8 10 μg/kg, CP 93129 1, WIN 55,212-2 2, anandamide 2, SR141716A 3 mg/kg, i.p.
Experimental: Capsaicin was administered subcutaneously (12.5 mg/ml, Kaneko, et al., Am. J. Physiol., 275:G1056-G1062 (1998)) in rats anesthetized with ethyl ether. The total dose of capsaicin (125 mg/kg) was divided into three injections (25 mg/kg in the morning and 50 mg/kg in the afternoon of the first day, 50 mg/kg on the 2nd day). Control rats received vehicle injections. […] Water intake (in ml/4 hr) was: vehicle 13.6±1.4; capsaicin rats 24.0±1.9, P<0.01 (n=12).
The can was retired and intake was recorded.

PPAR-α-regulated genes = assay: Real time quantitative PCR of gene expression in mouse intestine and liver; type: in vivo; conditions: for expression of PPAR-α-regulated genes (PPAR-α, FAT/CD36, FATP1): jejunum of wild-type mice, OEA or oleic acid 10, Wy-14643 30 mg kg^−1 i.p.
Experimental: (§1) Tissues were stored in RnaLater™ (Ambion), extracted total RNA with TRIzol™ (Invitrogen) and quantified it with Ribogreen™ (Molecular Probes). cDNA was synthesized by using SuperscriptII RNase H-reverse transcriptase (Invitrogen).
(§2) Reverse transcription of total RNA (2 μg) was performed using Oligo(dT)12-18 primer (0.2 μg) for 50 min at 42° C. Real Time Quantitative (RTQ) PCR was conducted using an ABI PRISM 7700 sequence detection system (Applied Biosystems). Primer/probe sets were designed using the Primer Express™ software and gene sequences available from the Genebank™ database. Primers and fluorogenic probes were synthesized by TIB (Adelphia). The primer/probe sequences for the mouse genes were:
(§3) RNA levels were normalized by using glyceraldehyde 3-phosphate dehydrogenase (GAPDH) as an internal standard. mRNA levels were measured by generating six-point serial standard curves using mouse total RNA. Estimates of relative mRNA abundance (in arbitrary units) were made by using the CT value (Schmittgen et al., 2000). Relative quantifications of RNAs of interest were made by using the 2^ΔCT formula, in which ΔCT was calculated by subtracting the CT value for GAPDH from the CT value for the gene of interest. This formula was validated for each primer/probe set by using six-point serial standard curves.

iNOS = assay: Transrepression of iNOS expression in mouse jejunum; type: in vivo; conditions: jejunum of C57BL/6J mice; OEA or oleic acid 10, Wy-14643 30 mg kg^−1 i.p.
Experimental: as §1, §2, §3

[5] = Food intake studies in food-deprived or partially satiated rats (i.p. or i.c.v.), Example 8; conditions: for food intake in partially satiated rats, systemic (i.p.) administration: 24 h food-deprived, allowed to eat 60 min before drug; for food intake in 24 h food-deprived rats, systemic (i.p.) administration: anandamide or WIN 55,212-2 0.1-2 mg/kg
Experimental: (§4) Drugs were administered by i.p. injection 15 min prior to food presentation in a volume of 1 ml/kg. For i.c.v. administration the obturator was removed from the guide cannula and an 8-mm injector (30-gauge stainless steel tubing) that was connected to 70 cm of calibrated polyethylene-10 tubing was lowered into the ventricle. The tubing was then raised until flow began and 5 μl of drug solution were infused over a 30-60 s period. The injector was left in the guide cannula for additional 30 s and then removed. The stylet was immediately replaced. Animals were tested 5 min after injections. The i.c.v. cannula placements were evaluated after each experiment by dye injection. Only those rats with proper i.c.v. placements were included in the data analysis.
(§5) The animals were then food-deprived for 24 h, with free access to water. 15 min after drug administration, the animals were returned to their home cage, where a can with a measured amount of food (usually 30-40 g) a bottle containing 250 ml of fresh water were placed. Food pellets and food spillage were weighed at 60,120 and 240 min after starting the test, and the amount of food eaten was recorded. At the end of the test, the amount of water consumed was also measured. For partial satiation of animals, 24 h food-deprived rats were allowed to eat from the can during 1 h. The can was retired and intake was recorded. 15 min after drug injections, the food was again presented, and the amount consumed was recorded hourly for the following 4 h.

Open field test = type: in vivo, rat
Experimental: Rats were habituated to the field for 10 min the day before testing. On the experimental day, the animals were placed in the center of the field and locomotor activity (number of lines crossed) and exploratory behavior (number of rearings and time spent in the center of the field) were scored for 5 min. All the experiments were performed 60 min after drug injections, and behavior was scored by trained observers blind to experimental conditions.

[6] = Food intake in vagotomized or capsaicin-treated rats, Example 3; type: in vivo, rat; conditions: for food intake 30 min / food intake 60 min / food intake 120 min / food intake 240 min: 24-h food-deprived, Wy-14643 40 mg kg^−1 i.p.; for food intake after vagotomy or capsaicin treatment: rats, OEA 10, Wy-14643 40 mg kg^−1 i.p.
[7] = rat, in vivo
Experimental: as §4, §5

## CCCCCCCCCCCCCCCCCC(=O)NCCO [stearylethanolamide]
Human PPARα
  PPARα activation: did not elicit a response

## CCCCCCCCCCCCCCCC(=O)NCCO [Palmitoylethanolamide, palmitoylethanolamide]
[1]
  food intake (hypophagia): active but significantly less potent than OEA
Soleus muscle
  mimicry of the OEA effect on skeletal muscle fatty acid oxidation: only partially

## CCOC(=O)C(C)(C)Oc1ccc(Cl)cc1 [clofibrate, 2-(4-chlorophenoxy)-2-methylpropanoic acid, ethyl ester]
[2]
  food intake in C57BL/6J mice: did not

## CCCCCCCCCCCCCC(=O)NCCO [myristylethanolamide]
Human PPARα
  PPARα activation: ineffective

## CCK-8
[3]
  feeding response in capsaicin-treated rats: failed to respond
[2]
  feeding in PPARα-deficient mice: responded normally
[4]
  effect of capsaicin treatment on the drug's feeding response: abolished the anorexic response; also recorded: abolished the anorexic effect

## CC(C)(Sc1ccc(CCN(CCCCC2CCCCC2)C(=O)NC2CCCCC2)cc1)C(=O)O [GW7647, 2-(4-{2-[3-Cyclohexyl-1-(4-cyclohexyl-butyl)-ureido]-ethyl}-phenylsulfanyl)-2-methyl-propionic acid]
[2]
  meal pattern analysis (eating latency, meal size, post-meal interval): selective prolongation of eating latency
  food intake in C57BL/6J mice: inhibited food intake

## O=c1ccc2[nH]cc(C3=CCNCC3)c2[nH]1 [CP-93129]
[3]
  feeding response in capsaicin-treated rats: responded normally
[4]
  effect of capsaicin treatment on the drug's feeding response: not

## CCCCCCCC/C=C\CCCCCCCC(=O)O [oleic acid]
[1]
  food intake (hypophagia): no effect
Soleus muscle
  mimicry of the OEA effect on skeletal muscle fatty acid oxidation: not
Human PPARα
  EC50: 10.3 ± 0.21 µM
PPAR-α-regulated genes
  expression of PPAR-α-regulated genes (PPAR-α, FAT/CD36, FATP1): not
iNOS
  iNOS expression: ineffective

## Cc1c(C(=O)c2cccc3ccccc23)c2cccc3c2n1[C@H](CN1CCOCC1)CO3 [WIN 55,212-2]
[4]
  effect of capsaicin treatment on the drug's feeding response: loss of the hyperphagic effects; also recorded: did not produce hyperphagia
[5]; 10 μg i.c.v.
  motor effect at the highest central dose: motor impairment
[5]; 10 mg/kg i.p.
  immobility: profound immobility
[5]
  food intake in partially satiated rats, systemic (i.p.) administration: significant and prolonged hyperphagia; also recorded: promoted hyperphagia
  food intake in 24 h food-deprived rats, systemic (i.p.) administration: no effect
  food intake after central (i.c.v.) administration: no effect on feeding

## Cc1c(C(=O)NN2CCCCC2)nn(-c2ccc(Cl)cc2Cl)c1-c1ccc(Cl)cc1 [SR141716A, N-piperidino-5-(4-chlorophenyl)-1-(2,4-dichlorophenyl)-4-methylpyrazole-3-carboxamide]
Open field test; i.c.v. SR141716A 10 μg, i.c.v. vehicle 16.6±3.1
  rearing frequency in the open field: 4.9±1.1 number of events per 5 min
Open field test; i.p. SR141716A 3 mg/kg, i.p. vehicle 17.9±2.3
  rearing frequency in the open field: 9.4±2.0 number of events per 5 min
Open field test; irrespective of the administration route
  exploratory behavior in the open field: reduced exploratory behavior
[4]
  effect of capsaicin treatment on the drug's feeding response: loss and abolishes the reduction of food intake
[5]
  food intake in partially satiated rats, systemic (i.p.) administration: dose-dependent reduction of food intake
  food intake in 24 h food-deprived rats, systemic (i.p.) administration: dose-dependent reduction of food intake; also recorded: reduced food intake
  food intake after central (i.c.v.) administration: no effect; also recorded: did not affect food intake

## Cc1cccc(Nc2cc(Cl)nc(SCC(=O)O)n2)c1C [Wy-14643]
[2]
  meal pattern analysis (eating latency, meal size, post-meal interval): selective prolongation of eating latency
  feeding in PPARα-deficient mice: did not respond
  food intake in C57BL/6J mice: inhibited food intake
[6]; capsaicin-treated rats
  food intake 30 min: 2.2 ± 1.2
  food intake 60 min: 3.7 ± 1.6
  food intake 120 min: 4.9 ± 1.5
  food intake 240 min: 7.8 ± 1.9
[6]; control rats
  food intake 30 min: 2.3 ± 1.3
  food intake 60 min: 3.6 ± 1.2
  food intake 120 min: 5.8 ± 1.3
  food intake 240 min: 6.4 ± 1.8
[6]
  food intake after vagotomy or capsaicin treatment: prevented the hypophagic effects
PPAR-α-regulated genes
  expression of PPAR-α-regulated genes (PPAR-α, FAT/CD36, FATP1): mimicked the effects of OEA
PPAR-α-regulated genes; jejunum, OEA 10, Wy-14643 30 mg kg^−1 i.p.
  gene expression in mice deficient in PPAR-α: did not stimulate gene expression
iNOS
  iNOS expression: significantly decreased

## CCCCC/C=C\C/C=C\C/C=C\C/C=C\CCCC(=O)NCCO [anandamide, arachidonylethanolamide]
[1]
  food intake (hypophagia): no effect
Soleus muscle
  mimicry of the OEA effect on skeletal muscle fatty acid oxidation: not
Human PPARα
  PPARα activation: ineffective
[4]
  effect of capsaicin treatment on the drug's feeding response: loss of the hyperphagic effects
[7]
  motor effect at the highest central dose: motor impairment
[5]
  food intake in partially satiated rats, systemic (i.p.) administration: significant and prolonged hyperphagia
  food intake in 24 h food-deprived rats, systemic (i.p.) administration: no effect
  food intake after central (i.c.v.) administration: no effect on feeding
[5]; listed as Anandamide
  food intake in partially satiated rats, systemic (i.p.) administration: elicited hyperphagia
  food intake after central (i.c.v.) administration: no effect

## Cc1cc(SCc2sc(-c3ccc(C(F)(F)F)cc3)nc2C)ccc1OCC(=O)O [GW501516, [2-Methyl-4-[4-methyl-2-(4-trifluoromethyl-phenyl)-thiazol-5-ylmethylsulfanyl]-phenoxy}-acetic acid]
[2]
  food intake in C57BL/6J mice: did not affect feeding; also recorded: Lack of effect

## CCN[C@@H](C)Cc1cccc(C(F)(F)F)c1 [d-fenfluramine]
[2]
  feeding in PPARα-deficient mice: responded normally
[6]
  food intake after vagotomy or capsaicin treatment: not
